Reference: publication PMC8722715 (Frontiers in Cell and Developmental Biology, 2021)

Experiments:
hNaV1.7 channel = target: T1, hNaV1.7 channel (Homo sapiens, UniProt Q15858); test: Automated patch-clamp block of hNaV1.7 peak Na+ current in CHO cells; format: cell-based; conditions: for hNaV1.7/hNaV1.6 selectivity ratio: inverse ratio of the mean IC50 values on hNaV1.7 (CHO) and hNaV1.6 (HEK-293) of Table 1; for hNaV1.7 IC50 versus WT: ratio of analogue mean IC50 to HwTx-IV WT mean IC50 on hNaV1.7; for IC50: CHO cells stably expressing hNaV1.7, SyncroPatch 384 PE whole-cell, holding -100 mV, -10 mV test pulse 50 ms every 5 s, room temperature 18-22°C, 0.3% BSA, steady state or end of 15-min application, mean, S.E.M. and n cells
T1 construct: expressed in transfected cells
Protocol: (§1) CHO cells stably expressing the hNaV1.7 channel subtype were cultured in Dulbecco’s Modified Eagle’s Medium F-12 (DMEM/F12) supplemented with 10% fetal bovine serum, 2 mM glutamine, 200 μg/ml hygromycine B, 10 U/ml penicillin and 10 μg/ml streptomycin (Gibco, Grand Island, NY). HEK-293 cells stably expressing the hNaV1.6 channel subtype were cultured in Dulbecco’s Modified Eagle’s Medium (DMEM) supplemented with 10% fetal calf serum, 1 mM pyruvic acid, 4.5 g/L glucose, 2 mM glutamine, 800 μg/ml G418, 10 U/ml penicillin and 10 μg/ml streptomycin (Gibco, Grand Island, NY). All cell lines were incubated at 37°C in a 5% CO2 atmosphere. For electrophysiological recordings, cells were detached with trypsin, and floating single cells were diluted (∼300,000 cells/ml) in an extracellular solution containing (in mM): 140 NaCl, 4 KCl, 2 CaCl2, 1 MgCl2, 5 glucose and 10 HEPES (pH 7.4, osmolarity 298 mOsm), that was used throughout the experiments.
HwTx-IV analogues were investigated on CHO cells expressing hNav1.7 channel and HEK-293 cells expressing hNaV1.6 channel using the automated patch-clamp system from Nanion (SyncroPatch 384 PE; München, Germany). Chips with single-hole and high-resistance (∼6–7 MΩ) were used for both cell lines. Voltage pulses and whole-cell recordings were achieved using the PatchControl384 v1.5.2 software (Nanion) and the Biomek v1.0 interface (Beckman Coulter). Prior to recordings, dissociated cells were shaken at 200 RPM in a cell hotel reservoir at 10°C. After cell catching, sealing, whole-cell formation, liquid application, recording, and data acquisition were all performed sequentially and automatically. The intracellular solution contained (in mM): 110 CsF, 10 CsCl, 10 NaCl, 1 MgCl2, 1 CaCl2, 10 EGTA and 10 HEPES (pH 7.2, osmolarity 280 mOsm), and the extracellular solution was as described above. Whole-cell experiments were done at −100 mV holding potential and at room temperature (18–22°C), while currents triggered at either −10 or 0 mV test potential were sampled at 20 kHz. Stimulation frequency was set at 0.2 Hz. Each HwTx-IV analogue was prepared at various concentrations in the extracellular solution, itself supplemented with 0.3% of bovine serum albumin (BSA), also added in the control solution. […] Compound solutions were diluted 3 times in the patch-clamp recording well by adding 30–60 μl external solution, to reach the final reported concentration and the test volume of 90 μl. For establishing dose-response curves, the compounds were tested at a test potential of either −10 or 0 mV for 50 ms with a pulse every 5 s. Percentages of current inhibition were measured at steady-state of blockage or at the end of a 15-min application time.

hNaV1.6 channel = target: T2, hNaV1.6 channel (Homo sapiens, UniProt Q9UQD0); test: Automated patch-clamp block of hNaV1.6 peak Na+ current in HEK-293 cells; format: cell-based; conditions: for hNaV1.6 IC50 versus WT: ratio of analogue mean IC50 to HwTx-IV WT mean IC50 on hNaV1.6; for IC50: HEK-293 cells stably expressing hNaV1.6, SyncroPatch 384 PE whole-cell, holding -100 mV, 0 mV test pulse 50 ms every 5 s, room temperature 18-22°C, 0.3% BSA, steady state or end of 15-min application, mean, S.E.M. and n cells
T2 construct: expressed in transfected cells
Protocol: as §1
HwTx-IV analogues were investigated on CHO cells expressing hNav1.7 channel and HEK-293 cells expressing hNaV1.6 channel using the automated patch-clamp system from Nanion (SyncroPatch 384 PE; München, Germany). Chips with single-hole and high-resistance (∼6–7 MΩ) were used for both cell lines. Voltage pulses and whole-cell recordings were achieved using the PatchControl384 v1.5.2 software (Nanion) and the Biomek v1.0 interface (Beckman Coulter). Prior to recordings, dissociated cells were shaken at 200 RPM in a cell hotel reservoir at 10°C. After cell catching, sealing, whole-cell formation, liquid application, recording, and data acquisition were all performed sequentially and automatically. The intracellular solution contained (in mM): 110 CsF, 10 CsCl, 10 NaCl, 1 MgCl2, 1 CaCl2, 10 EGTA and 10 HEPES (pH 7.2, osmolarity 280 mOsm), and the extracellular solution was as described above. Whole-cell experiments were done at −100 mV holding potential and at room temperature (18–22°C), while currents triggered at either −10 or 0 mV test potential were sampled at 20 kHz. Stimulation frequency was set at 0.2 Hz. Each HwTx-IV analogue was prepared at various concentrations in the extracellular solution, itself supplemented with 0.3% of bovine serum albumin (BSA), also added in the control solution. The peptides were distributed in 384-well microplates according to the number of compounds to be tested (generally four), the concentration range defined from the IC50 of wild-type HwTx-IV, and the number of cells desired for each experimental condition. Compound solutions were diluted 3 times in the patch-clamp recording well by adding 30–60 μl external solution, to reach the final reported concentration and the test volume of 90 μl. For establishing dose-response curves, the compounds were tested at a test potential of either −10 or 0 mV for 50 ms with a pulse every 5 s. Percentages of current inhibition were measured at steady-state of blockage or at the end of a 15-min application time.

T1 sequence (Q15858 whole entry): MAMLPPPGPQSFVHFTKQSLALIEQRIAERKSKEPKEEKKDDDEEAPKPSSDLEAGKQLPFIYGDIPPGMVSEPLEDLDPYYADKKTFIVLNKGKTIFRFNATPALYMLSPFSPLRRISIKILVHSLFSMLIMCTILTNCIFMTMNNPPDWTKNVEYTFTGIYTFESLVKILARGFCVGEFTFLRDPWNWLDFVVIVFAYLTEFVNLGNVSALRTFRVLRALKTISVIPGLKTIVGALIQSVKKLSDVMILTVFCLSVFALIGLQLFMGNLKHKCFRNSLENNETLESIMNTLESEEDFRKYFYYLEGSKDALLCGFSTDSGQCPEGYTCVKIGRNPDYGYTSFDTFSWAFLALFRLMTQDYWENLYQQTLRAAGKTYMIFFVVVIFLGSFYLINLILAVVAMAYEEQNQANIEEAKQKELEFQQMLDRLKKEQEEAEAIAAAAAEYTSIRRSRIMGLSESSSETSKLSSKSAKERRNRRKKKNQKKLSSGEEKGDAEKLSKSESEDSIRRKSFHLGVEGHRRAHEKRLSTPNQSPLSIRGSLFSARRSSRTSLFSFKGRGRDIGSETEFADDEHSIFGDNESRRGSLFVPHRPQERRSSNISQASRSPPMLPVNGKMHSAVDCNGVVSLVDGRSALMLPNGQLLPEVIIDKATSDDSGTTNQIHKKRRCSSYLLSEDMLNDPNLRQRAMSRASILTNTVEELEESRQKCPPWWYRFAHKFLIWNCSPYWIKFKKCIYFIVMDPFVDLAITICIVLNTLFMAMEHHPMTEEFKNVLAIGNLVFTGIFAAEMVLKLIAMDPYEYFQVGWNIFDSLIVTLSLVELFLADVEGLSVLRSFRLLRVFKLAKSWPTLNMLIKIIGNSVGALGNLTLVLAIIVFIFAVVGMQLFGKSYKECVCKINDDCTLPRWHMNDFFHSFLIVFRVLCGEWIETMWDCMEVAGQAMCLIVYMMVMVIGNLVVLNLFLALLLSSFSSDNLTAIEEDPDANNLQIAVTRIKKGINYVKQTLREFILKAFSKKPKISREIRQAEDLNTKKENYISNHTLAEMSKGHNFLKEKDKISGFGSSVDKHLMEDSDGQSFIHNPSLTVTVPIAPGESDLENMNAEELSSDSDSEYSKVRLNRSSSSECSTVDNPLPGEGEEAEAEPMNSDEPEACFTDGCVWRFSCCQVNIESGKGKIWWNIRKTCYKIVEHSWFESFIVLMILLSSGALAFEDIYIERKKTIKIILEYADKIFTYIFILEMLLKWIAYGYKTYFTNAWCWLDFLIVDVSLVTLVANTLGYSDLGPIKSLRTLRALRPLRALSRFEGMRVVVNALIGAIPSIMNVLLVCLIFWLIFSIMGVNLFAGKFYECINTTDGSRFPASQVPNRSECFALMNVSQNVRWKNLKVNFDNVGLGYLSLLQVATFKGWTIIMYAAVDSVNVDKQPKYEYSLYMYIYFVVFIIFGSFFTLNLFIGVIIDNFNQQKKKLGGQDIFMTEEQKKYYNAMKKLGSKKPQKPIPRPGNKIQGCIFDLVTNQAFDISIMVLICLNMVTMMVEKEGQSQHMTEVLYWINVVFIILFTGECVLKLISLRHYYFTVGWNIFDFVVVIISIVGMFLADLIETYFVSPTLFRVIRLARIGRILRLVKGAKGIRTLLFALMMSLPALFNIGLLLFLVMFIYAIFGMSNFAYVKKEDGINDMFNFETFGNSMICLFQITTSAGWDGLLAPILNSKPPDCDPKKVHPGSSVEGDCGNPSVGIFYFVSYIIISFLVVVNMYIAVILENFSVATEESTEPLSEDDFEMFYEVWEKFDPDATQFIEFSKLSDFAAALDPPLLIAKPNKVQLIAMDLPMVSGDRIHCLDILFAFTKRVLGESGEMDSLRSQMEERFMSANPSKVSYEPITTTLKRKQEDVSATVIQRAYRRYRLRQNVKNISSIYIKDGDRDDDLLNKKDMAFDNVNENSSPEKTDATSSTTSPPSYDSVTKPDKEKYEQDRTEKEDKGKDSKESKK
T2 sequence (Q9UQD0 whole entry): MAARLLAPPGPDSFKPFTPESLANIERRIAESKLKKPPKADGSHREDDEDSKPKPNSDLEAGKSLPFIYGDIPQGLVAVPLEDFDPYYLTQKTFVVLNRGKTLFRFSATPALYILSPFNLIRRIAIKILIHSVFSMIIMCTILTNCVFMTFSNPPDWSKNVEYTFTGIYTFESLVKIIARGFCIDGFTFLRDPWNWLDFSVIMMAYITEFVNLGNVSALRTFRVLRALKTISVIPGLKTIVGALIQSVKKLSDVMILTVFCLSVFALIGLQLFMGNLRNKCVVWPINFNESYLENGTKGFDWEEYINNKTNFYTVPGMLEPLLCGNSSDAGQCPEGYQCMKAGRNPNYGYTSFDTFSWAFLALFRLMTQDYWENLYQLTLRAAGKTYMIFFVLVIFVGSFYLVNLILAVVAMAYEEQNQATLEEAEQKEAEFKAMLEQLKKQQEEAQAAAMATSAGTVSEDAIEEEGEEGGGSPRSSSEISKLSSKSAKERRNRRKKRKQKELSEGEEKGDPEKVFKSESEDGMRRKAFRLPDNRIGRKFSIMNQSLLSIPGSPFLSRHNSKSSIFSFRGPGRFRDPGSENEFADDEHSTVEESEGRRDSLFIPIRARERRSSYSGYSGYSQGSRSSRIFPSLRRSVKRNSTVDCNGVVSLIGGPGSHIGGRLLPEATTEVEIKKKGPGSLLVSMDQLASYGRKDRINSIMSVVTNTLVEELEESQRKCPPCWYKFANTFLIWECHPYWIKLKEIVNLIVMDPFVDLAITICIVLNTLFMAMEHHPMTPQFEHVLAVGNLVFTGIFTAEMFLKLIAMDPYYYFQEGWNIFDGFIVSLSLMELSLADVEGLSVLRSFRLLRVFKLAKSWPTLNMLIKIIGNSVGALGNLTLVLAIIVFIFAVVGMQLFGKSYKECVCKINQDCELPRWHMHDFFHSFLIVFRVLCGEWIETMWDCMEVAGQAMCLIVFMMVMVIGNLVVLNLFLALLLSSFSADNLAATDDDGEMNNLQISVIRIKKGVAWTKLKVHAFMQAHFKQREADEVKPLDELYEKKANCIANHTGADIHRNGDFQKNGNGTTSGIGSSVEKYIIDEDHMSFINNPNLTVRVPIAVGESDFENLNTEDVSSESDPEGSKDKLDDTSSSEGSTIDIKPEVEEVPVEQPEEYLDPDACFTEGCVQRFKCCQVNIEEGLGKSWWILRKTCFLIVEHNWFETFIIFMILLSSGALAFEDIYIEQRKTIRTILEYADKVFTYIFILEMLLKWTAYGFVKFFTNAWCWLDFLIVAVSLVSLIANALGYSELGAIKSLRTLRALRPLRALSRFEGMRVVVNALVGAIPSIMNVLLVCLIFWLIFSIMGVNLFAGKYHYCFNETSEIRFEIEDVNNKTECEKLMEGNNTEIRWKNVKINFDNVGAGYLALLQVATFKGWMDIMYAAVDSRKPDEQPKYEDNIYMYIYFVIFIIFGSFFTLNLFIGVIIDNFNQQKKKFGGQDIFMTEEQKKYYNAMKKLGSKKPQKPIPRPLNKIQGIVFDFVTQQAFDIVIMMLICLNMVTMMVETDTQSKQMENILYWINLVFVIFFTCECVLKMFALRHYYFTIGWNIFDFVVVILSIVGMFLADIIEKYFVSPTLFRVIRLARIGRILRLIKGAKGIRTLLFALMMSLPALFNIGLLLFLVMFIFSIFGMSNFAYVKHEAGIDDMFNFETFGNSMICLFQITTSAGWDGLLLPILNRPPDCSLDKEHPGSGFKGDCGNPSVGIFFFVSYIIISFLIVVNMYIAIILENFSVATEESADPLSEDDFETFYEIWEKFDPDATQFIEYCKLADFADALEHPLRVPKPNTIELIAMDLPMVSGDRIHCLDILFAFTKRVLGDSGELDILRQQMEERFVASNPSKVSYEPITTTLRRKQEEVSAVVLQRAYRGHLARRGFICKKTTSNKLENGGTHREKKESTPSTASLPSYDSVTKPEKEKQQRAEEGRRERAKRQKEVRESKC

| SMILES | hNaV1.7/hNaV1.6 selectivity ratio (hNaV1.7 channel; listed as E^4K) | hNaV1.7/hNaV1.6 selectivity ratio (hNaV1.7 channel; listed as HwTx-IV E^4K) | hNaV1.7 IC50 versus WT (hNaV1.7 channel) | hNaV1.7 IC50 versus WT (hNaV1.7 channel; listed as HwTx-IV E^4G) | hNaV1.7 IC50 versus WT (hNaV1.7 channel; listed as HwTx-IV E^4K) | hNaV1.6 IC50 versus WT (hNaV1.6 channel) | hNaV1.6 IC50 versus WT (hNaV1.6 channel; listed as HwTx-IV E^4G) | hNaV1.6 IC50 versus WT (hNaV1.6 channel; listed as HwTx-IV E^4K) | hNaV1.6 IC50 versus WT (hNaV1.6 channel; listed as HwTx-IV E^4R) | IC50 (hNaV1.7 channel) [nM] | IC50 (hNaV1.6 channel) [nM] |
| --- | --- | --- | --- | --- | --- | --- | --- | --- | --- | --- | --- |
| CC[C@H](C)[C@H](NC(=O)[C@H](CCC(N)=O)NC(=O)[C@H](Cc1ccc(O)cc1)NC(=O)[C@H](CCCCN)NC(=O)[C@@H]1CSSC[C@@H]2NC(=O)[C@H](CCC(N)=O)NC(=O)[C@H](CC(=O)O)NC(=O)[C@H](CC(N)=O)NC(=O)[C@H](CO)NC(=O)[C@@H]3CCCN3C(=O)[C@H](CC(N)=O)NC(=O)[C@@H]3CSSC[C@H](NC(=O)[C@H](C(C)C)NC(=O)[C@H](CC(C)C)NC(=O)[C@H](CCCCN)NC(=O)[C@H](CO)NC(=O)[C@H](CO)NC(=O)[C@H](CCCCN)NC(=O)[C@H](CSSC[C@H](NC(=O)CN)C(=O)N[C@@H](CC(C)C)C(=O)N[C@@H](CCC(=O)O)C(=O)N[C@@H]([C@@H](C)CC)C(=O)N[C@@H](Cc4ccccc4)C(=O)N[C@@H](CCCCN)C(=O)N[C@@H](C)C(=O)N3)NC2=O)C(=O)N[C@@H](CO)C(=O)N[C@@H](CCCNC(=N)N)C(=O)N[C@@H](CCCCN)C(=O)N[C@@H]([C@@H](C)O)C(=O)N[C@@H](CCCNC(=N)N)C(=O)N[C@@H](Cc2c[nH]c3ccccc23)C(=O)N1)C(N)=O [HwTx-IV E^1G] | less than 2 | ~1 | 0.70 | 0.16 | 1.43 | 0.28 | 0.03 | 0.09 | 0.05 | – | – |
| CC[C@H](C)[C@H](NC(=O)[C@H](CCC(N)=O)NC(=O)[C@H](Cc1ccc(O)cc1)NC(=O)[C@H](CCCCN)NC(=O)[C@@H]1CSSC[C@@H]2NC(=O)[C@H](CCC(N)=O)NC(=O)[C@H](CC(=O)O)NC(=O)[C@H](CC(N)=O)NC(=O)[C@H](CO)NC(=O)[C@@H]3CCCN3C(=O)[C@H](CC(N)=O)NC(=O)[C@@H]3CSSC[C@H](NC(=O)[C@H](C(C)C)NC(=O)[C@H](CC(C)C)NC(=O)[C@H](CCCCN)NC(=O)[C@H](CO)NC(=O)[C@H](CO)NC(=O)[C@H](CCCCN)NC(=O)[C@H](CSSC[C@H](NC(=O)[C@@H](N)CCC(=O)O)C(=O)N[C@@H](CC(C)C)C(=O)NCC(=O)N[C@@H]([C@@H](C)CC)C(=O)N[C@@H](Cc4ccccc4)C(=O)N[C@@H](CCCCN)C(=O)N[C@@H](C)C(=O)N3)NC2=O)C(=O)N[C@@H](CO)C(=O)N[C@@H](CCCNC(=N)N)C(=O)N[C@@H](CCCCN)C(=O)N[C@@H]([C@@H](C)O)C(=O)N[C@@H](CCCNC(=N)N)C(=O)N[C@@H](Cc2c[nH]c3ccccc23)C(=O)N1)C(=O)O [HwTx-IV E^4G/CterCOOH] | – | – | 1.51 | – | – | 0.24 | – | – | – | 14.9 | 55.1 |
| CC[C@H](C)[C@H](NC(=O)[C@H](CCC(N)=O)NC(=O)[C@H](Cc1ccc(O)cc1)NC(=O)[C@H](CCCCN)NC(=O)[C@@H]1CSSC[C@@H]2NC(=O)[C@H](CCC(N)=O)NC(=O)[C@H](CC(=O)O)NC(=O)[C@H](CC(N)=O)NC(=O)[C@H](CO)NC(=O)[C@@H]3CCCN3C(=O)[C@H](CC(N)=O)NC(=O)[C@@H]3CSSC[C@H](NC(=O)[C@H](C(C)C)NC(=O)[C@H](CC(C)C)NC(=O)[C@H](CCCCN)NC(=O)[C@H](CO)NC(=O)[C@H](CO)NC(=O)[C@H](CCCCN)NC(=O)[C@H](CSSC[C@H](NC(=O)[C@@H](N)CCC(=O)O)C(=O)N[C@@H](CC(C)C)C(=O)N[C@@H](CCCCN)C(=O)N[C@@H]([C@@H](C)CC)C(=O)N[C@@H](Cc4ccccc4)C(=O)N[C@@H](CCCCN)C(=O)N[C@@H](C)C(=O)N3)NC2=O)C(=O)N[C@@H](CO)C(=O)N[C@@H](CCCNC(=N)N)C(=O)N[C@@H](CCCCN)C(=O)N[C@@H]([C@@H](C)O)C(=O)N[C@@H](CCCNC(=N)N)C(=O)N[C@@H](Cc2c[nH]c3ccccc23)C(=O)N1)C(=O)O [HwTx-IV E^4K/CterCOOH] | – | – | 1.20 | – | – | 0.60 | – | – | – | 11.9 | 136 |
